Measurements: patent US20120028995A1, “NOVEL COMPOUNDS FOR MEDICAL USE AS PEPTIDASE EFFECTORS” (IMTM GMBH, priority 2010, published 2012)

Columns and labels:
NHEK cells = test: Inhibition of DNA synthesis and proliferation of normal human epidermal keratinocytes (NHEK); type: cell-based; conditions: Homo sapiens, NHEK, 48 h, EGF-stimulated NHEK, BrdU incorporation, read-out: Supp. DNA Synt. NHEK IC50
Method: NHEK cells (primary cells from person) were purchased from PromoCell. For these assay the adherent cells were cultured in serum-free Keratinocyte Growth medium 2 supplemented with epidermal growth factor (EGF) and bovine pituitary extract for 48 hours in flat-bottom microtiter plates. EGF stimulates the DNA synthesis and proliferation of these cells. Test items were added in concentrations from 0.1 up to 100 μM.
The DNA synthesis was assessed by incorporation of bromdesoxyuridine (BrdU) and subsequent detection of BrdU by ELISA technique. Based on these raw data the relative proliferation response in relation to cells cultured in the absence of test compound (100% control) was calculated. IC50 values of proliferation suppression were assessed by computer-assisted graphical evaluation.

[1] = test system: purified, recombinant DP8 and DP9; test: Inhibition of enzymatic activity of DP8/9; type: biochemical; conditions: highest test item concentration 25 μM; for IC50: read-out: meas. IC50 (DP8/9)
Method: (§1) The inhibition of the enzymatic activity of DPIV and related enzymes was measured by using purified, recombinant human DPIV (purified from transfected Sf9 cells, final enzyme concentration approx. 1 nM) as well as purified, recombinant DP8 and DP9 (purchased from Biomol). The assay was performed in 0.05M TRIS/HCl puffer pH 7.5, supplemented with 0.05% Triton (v/v), 0.05% BSA (w/v), 2 mM MgCl2.
(§2) The enzymatic activity of DPIV was assessed by the hydrolysis of the fluorogenic substrates H-Gly-Pro-4-amino-7-methyl coumarine (abbreviation of fluorogenic group AMC; purchased from Bachem) or (Ala-Pro)2-Rhodamine 110 (abbreviation R110). The final substrate concentrations were 50 μM or 1 μM, respectively.
(§3) The assay was performed in white microtitre plates for fluorescence measurements. The test items, substrate and enzyme were diluted in assay buffer. The highest test item concentration used was 25 μM. For the calculation of IC50 values, at least 16 log 2-dilutions of each test item were analyzed. As controls, the DPIV activity in the absence of test items as well as the spontaneous hydrolysis of the substrate was determined.
(§4) The release of the fluorescent hydrolysis product AMC was measured at an excitation wavelength of 380 nm and an emission wavelength of 460 nm by using a microtitre fluorescence reader immediately after substrate addition as well as after 30, 60 and 120 min. The hydrolysis of the substrate (Ala-Pro)2-Rhodamine 110 was determined at an exitation wavelength of 488 nm and emission wavelength of 530 nm.

[2] = molecular target: T1, cytosolic aminopeptidase (cAAP) purified from Jurkat cells (Homo sapiens, UniProt P55786); test: Inhibition of enzymatic activity of cytosolic aminopeptidase (cAAP); type: biochemical; conditions: highest test item concentration 25 μM; for IC50: read-out: meas. IC50 (cAAP)
T1 construct: The cytosolic aminopeptidase (cAAP) was purified from Jurkat cells; endogenous in cells; host or cells: Jurkat cells (enzyme purified from them)
T1 sequence (P55786 whole entry): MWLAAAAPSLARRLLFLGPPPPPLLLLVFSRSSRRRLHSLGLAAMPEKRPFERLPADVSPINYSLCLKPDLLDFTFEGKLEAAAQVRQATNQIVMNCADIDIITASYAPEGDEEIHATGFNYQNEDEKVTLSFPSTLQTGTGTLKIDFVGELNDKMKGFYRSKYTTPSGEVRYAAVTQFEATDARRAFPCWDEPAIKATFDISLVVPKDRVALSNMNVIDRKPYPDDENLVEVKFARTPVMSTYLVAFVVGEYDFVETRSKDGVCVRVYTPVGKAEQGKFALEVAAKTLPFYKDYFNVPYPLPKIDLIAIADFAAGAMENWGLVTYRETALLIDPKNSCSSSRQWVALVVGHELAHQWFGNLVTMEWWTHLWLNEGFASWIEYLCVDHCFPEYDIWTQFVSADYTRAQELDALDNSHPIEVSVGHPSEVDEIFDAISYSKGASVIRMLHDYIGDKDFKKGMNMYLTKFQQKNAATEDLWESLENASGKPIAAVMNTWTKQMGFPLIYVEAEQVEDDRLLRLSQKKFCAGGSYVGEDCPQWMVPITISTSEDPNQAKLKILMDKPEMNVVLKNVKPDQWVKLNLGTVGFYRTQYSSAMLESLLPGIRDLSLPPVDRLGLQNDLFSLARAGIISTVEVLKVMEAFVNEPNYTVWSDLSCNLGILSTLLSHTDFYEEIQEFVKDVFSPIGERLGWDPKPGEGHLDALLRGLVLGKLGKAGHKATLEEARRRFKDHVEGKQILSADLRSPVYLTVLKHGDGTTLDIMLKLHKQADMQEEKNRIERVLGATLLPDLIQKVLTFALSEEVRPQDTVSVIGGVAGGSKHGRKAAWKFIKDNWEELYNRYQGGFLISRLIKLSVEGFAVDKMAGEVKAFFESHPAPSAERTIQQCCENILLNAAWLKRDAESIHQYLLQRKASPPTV

[3] = molecular target: T2, aminopeptidase N (APN), purified recombinant human enzyme (Homo sapiens, UniProt P15144); test: Inhibition of enzymatic activity of aminopeptidase N (fluorogenic substrate hydrolysis); type: biochemical; conditions: highest test item concentration 25 μM; for IC50: read-out: meas. IC50 (APN)
T2 construct: made in house; host or cells: ECV cells (transfected)
T2 sequence (P15144 whole entry): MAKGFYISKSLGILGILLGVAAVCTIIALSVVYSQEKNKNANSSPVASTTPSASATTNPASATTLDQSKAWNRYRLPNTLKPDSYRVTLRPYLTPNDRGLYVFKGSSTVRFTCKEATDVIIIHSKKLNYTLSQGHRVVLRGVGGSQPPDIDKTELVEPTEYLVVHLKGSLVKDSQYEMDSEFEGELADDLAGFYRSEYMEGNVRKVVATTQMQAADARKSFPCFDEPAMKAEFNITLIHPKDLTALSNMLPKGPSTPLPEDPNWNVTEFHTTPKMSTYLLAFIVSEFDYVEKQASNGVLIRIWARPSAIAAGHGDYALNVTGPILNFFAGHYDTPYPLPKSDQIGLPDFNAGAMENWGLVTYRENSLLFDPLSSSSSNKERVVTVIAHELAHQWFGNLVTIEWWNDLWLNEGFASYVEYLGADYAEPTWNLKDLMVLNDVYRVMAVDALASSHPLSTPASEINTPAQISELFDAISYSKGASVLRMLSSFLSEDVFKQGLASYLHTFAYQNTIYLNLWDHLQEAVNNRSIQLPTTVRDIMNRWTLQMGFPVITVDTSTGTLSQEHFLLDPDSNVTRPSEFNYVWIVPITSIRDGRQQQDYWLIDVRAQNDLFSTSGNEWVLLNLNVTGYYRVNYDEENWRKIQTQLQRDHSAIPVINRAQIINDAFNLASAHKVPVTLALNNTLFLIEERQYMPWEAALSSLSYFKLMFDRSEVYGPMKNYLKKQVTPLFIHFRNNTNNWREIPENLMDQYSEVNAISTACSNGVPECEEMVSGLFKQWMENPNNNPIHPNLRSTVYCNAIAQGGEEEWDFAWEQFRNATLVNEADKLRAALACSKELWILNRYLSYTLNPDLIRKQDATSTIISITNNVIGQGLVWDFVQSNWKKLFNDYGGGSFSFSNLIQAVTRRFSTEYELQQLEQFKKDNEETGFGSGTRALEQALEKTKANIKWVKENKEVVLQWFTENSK
Method: The inhibition of the enzymatic activity of aminopeptidase N (APN) was measured by using purified, recombinant human enzyme (purified from transfected ECV cells, final enzyme concentration approx. 1 nM). […] The assay was performed in 0.05M TRIS/HCl puffer pH 7.5, supplemented with 0.05% Triton (v/v), 0.05% BSA (w/v), 2 mM MgCl2.
The aminopeptidase acitivities wer assessed by the hydrolysis of the fluorogenic substrates H-Ala-4-amino-7-methyl coumarine (abbreviation of fluorogenic group AMC; purchased from Bachem) or (Ala-)2-Rhodamine 110 (abbreviation R110). The final substrate concentrations were again 50 and 1 μM, respectively.
as §3
The release of the fluorescent hydrolysis products AMC and R110 was measured as described above for DPIV substrates.

[4] = molecular target: T3, purified, recombinant human DPIV (Homo sapiens, UniProt P27487); test: Inhibition of enzymatic activity of DPIV (fluorogenic substrate hydrolysis); type: biochemical; conditions: highest test item concentration 25 μM; for IC50: read-out: meas. IC50 (DPIV)
T3 construct: made in house; host or cells: Sf9 insect cells
T3 sequence (P27487 whole entry): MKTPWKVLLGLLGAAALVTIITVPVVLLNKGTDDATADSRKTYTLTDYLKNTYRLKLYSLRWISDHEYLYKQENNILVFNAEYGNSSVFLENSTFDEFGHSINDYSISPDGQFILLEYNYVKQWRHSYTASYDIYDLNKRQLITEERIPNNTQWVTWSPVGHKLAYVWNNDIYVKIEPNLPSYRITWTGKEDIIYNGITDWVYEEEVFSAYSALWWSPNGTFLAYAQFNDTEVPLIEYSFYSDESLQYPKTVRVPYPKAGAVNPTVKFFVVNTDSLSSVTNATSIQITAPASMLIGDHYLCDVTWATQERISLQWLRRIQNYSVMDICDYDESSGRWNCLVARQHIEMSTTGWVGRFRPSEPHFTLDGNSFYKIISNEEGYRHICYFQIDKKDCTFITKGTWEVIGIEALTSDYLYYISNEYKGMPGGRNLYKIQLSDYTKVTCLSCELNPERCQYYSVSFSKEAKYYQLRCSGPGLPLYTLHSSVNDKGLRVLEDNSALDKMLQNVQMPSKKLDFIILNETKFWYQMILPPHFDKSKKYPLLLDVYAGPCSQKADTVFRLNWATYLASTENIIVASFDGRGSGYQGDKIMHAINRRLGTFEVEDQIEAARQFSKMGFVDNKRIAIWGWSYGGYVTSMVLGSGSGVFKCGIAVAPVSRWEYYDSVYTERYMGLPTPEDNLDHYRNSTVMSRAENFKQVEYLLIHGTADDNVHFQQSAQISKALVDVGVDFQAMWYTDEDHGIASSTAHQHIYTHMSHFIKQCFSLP
Method: as §1, §2, §3, §4

T lymphocytes (T cells) = test: Suppression of DNA synthesis of PHA-stimulated T lymphocytes; type: cell-based; conditions: Homo sapiens, T-cell, 48 h, tritium thymidine incorporation, read-out: Supp. DNA Synt. T-cell IC50
Method: Peripheral blood mononuclear cells (PBMC) from healthy human volunteers were freshly isolated by density gradient centrifugation. T lymphocytes (T cells) were isolated from PBMC fractions via nylon wool adherence. Both cell populations were cultured in serum free lymphocyte medium (AIMV medium, Invitrogen) and stimulated by addition of 1 μg/ml Phytohemagglutinine for 48 hours in 96 well flat-bottom microtiter plates. Test compounds were added at concentration ranges from 0.1 up to 250 μM over the total assay period.
DNA synthesis of proliferating PBMC was assessed by incorporation of nucleotide analogue bromdesoxyuridine (BrdU) and subsequent detection of BrdU by ELISA technique (Cell Proliferation Biotrak™ ELISA system, GE Health Care) according to the protocol of the manufacturer. DNA synthesis of proliferating T cells was determined by incorporation of radio labelled tritium thymidine and subsequent radio detection.
Data output was based on raw data and calculation of relative proliferation response in relation to PHA-activated T cells in the absence of test compound (100% control). The IC50 value of proliferation suppression was assessed by graphical evaluation.

SZ95 cells = test: Inhibition of DNA synthesis and proliferation of immortalized human sebocytes SZ95; type: cell-based; conditions: Homo sapiens, EGF-stimulated SZ95 sebocytes, tritium thymidine incorporation; read-out: Supp. DNA Synt. SZ95 IC50
Method: The immortalized human sebocyte line SZ95 was provided by Prof. C Zouboulis [C C Zouboulis, H Seltmann, H Neitzel, C E Orfanos, Establishment and characterization of an immortalized human sebaceous gland cell line (SZ95). J. Invest. Dermatol. 113(6):1011-1020 (1999), the entire disclosure of which is incorporated by reference herein]. These adherent growing cells were cultured in serum-free Sebomed Complete (Biochrom). Recombinant EGF was added in order to stimulate DNA synthesis and proliferation of the SZ95 cells. Test items were added in concentrations from 0.1 up to 100 μM.
The DNA synthesis of proliferating cells was detected by incorporation of radiolabelled tritium thymidine (3HT) and counting at a beta counter. Based on these raw data the relative proliferation response in relation to cells cultured in the absence of test compound (100% control) was calculated. IC50 values of proliferation suppression were assessed by computer-assisted graphical evaluation.

Row | meas. IC50 (DP8/9) [1] | IC50 [2] | meas. IC50 (APN) [3] | meas. IC50 (DPIV) [4] | IC50 (T lymphocytes (T cells)) | meas. IC50 (cAAP) [2] | IC50 [3] | IC50 [4] | Structure (SMILES) | IC50 (NHEK cells) | IC50 (SZ95 cells) | IC50 [1]
1 | no in- hibition | 3.5 µM | no in- hibition | no in- hibition | 7.6 µM |  |  |  | CCCCCCCC(=O)NC(CC(=O)NCC(C)(C)CNC(=O)C(O)C(COCc1ccccc1)NC(=O)CCCCCCC)Cc1cc(F)ccc1F (stereo not shown) [Compound C19.010] | 48.1 µM | 12.2 µM | 
2 | no in- hibition |  | no in- hibition | no in- hibition | 6.5 µM | no in- hibition |  |  | CCCCCC(=O)NC(CC(=O)NCC(C)(C)CNC(=O)C(O)C(COCc1ccc(OC)cc1)NC(=O)CCCCC)Cc1cc(F)ccc1F (stereo not shown) [Compound C19.013] | 15.3 µM | 17.4 µM | 
3 |  | 0.5 µM |  | No in- hibition | 12.2 µM |  | 1 µM |  | CC(C)(CNC(=O)CC(Cc1cc(F)ccc1F)NC(=O)OCc1ccccc1)CNC(=O)C(O)C(N)COCc1ccccc1 (stereo not shown) [Compound C19.026] | 8.9 µM | 22.7 µM | 7.3 µM
4 | no in- hibition | 0.25 µM |  |  | 70 µM |  | 0.19 µM | 0.36 µM | CC(=O)NC(Cc1ccccc1)C(O)C(=O)NCCCS(=O)(=O)NCC(N)Cc1cc(F)ccc1F (stereo not shown) [Compound C26.003] | ≥ 167 µM |  | 
5 |  | 0.37 µM |  |  | 81.2 µM |  | 0.92 µM | 0.33 µM | CC(C)(CNC(=O)CC(N)Cc1cc(F)ccc1F)CNC(=O)C(O)C(N)CO (stereo not shown) [Compound C19.003] |  | 81.4 µM | 3.8 µM
6 |  |  | no in- hibition | no in- hibition |  |  |  |  | CC(C)(C)OC(=O)NC(CNC(=O)CCCNC(=O)C(O)C(Cc1ccccc1)NC(=O)OC(C)(C)C)Cc1cc(F)ccc1F (stereo not shown) [Compound C26.009] |  |  | 
7 |  | 0.005 µM |  | no in- hibition | 12.9 µM |  | 0.094 µM |  | CC(C)(C)OC(=O)NC(CNC(=O)c1cccc(NC(=O)C(O)C(N)Cc2ccc(-c3cccnc3)cc2)c1)Cc1cc(F)ccc1F (stereo not shown) [Compound C-125] | 4.4 µM | 13.7 µM | 
8 | no in- hibition |  | no in- hibition |  | 200 µM | no in- hibition |  | 6.52 µM | CC(C)(C)OC(=O)NC(CNS(=O)(=O)CCCNC(=O)C(O)C(Cc1ccccc1)NC(=O)OC(C)(C)C)Cc1cc(F)ccc1F (stereo not shown) [Compound C26.002] | 18.1 µM |  | 
9 |  |  |  |  |  |  |  |  | CC(C)(CNC(=O)CC(N)Cc1cc(F)ccc1F)CNC(=O)C(O)C(N)COCc1ccccc1 (stereo not shown) [Compound C19.022] |  |  | 1.2 µM
10 |  | 0.09 µM |  |  | 200 µM |  | 0.07 µM | 0.58 µM | NC(CNS(=O)(=O)CCCNC(=O)C(O)C(N)Cc1ccccc1)Cc1cc(F)ccc1F (stereo not shown) [Compound C26.001] | ≥ 135 µM |  | 7.37 µM
11 | no in- hibition |  | no in- hibition | no in- hibition | 70 µM | no in- hibition |  |  | CC(=O)NC(Cc1ccccc1)C(O)C(=O)NCCCS(=O)(=O)NCC(Cc1cc(F)ccc1F)NC(=O)OC(C)(C)C (stereo not shown) [Compound C26.004] | ≥ 106 µM |  | 
12 |  | 0.13 µM |  | no in- hibition | 27.3 µM |  | 0.09 µM |  | NC(CNC(=O)CCCNC(=O)C(O)C(N)Cc1ccccc1)Cc1cc(F)ccc1F (stereo not shown) [Compound C26.005] | 28.9 µM |  | 
13 |  | 0.12 µM |  |  | 157 µM |  | 0.89 µM | 0.05 µM | NC(CCCCNS(=O)(=O)c1cccc(NC(=O)C(O)C(N)Cc2ccccc2)c1)C(=O)N1CCSC1 (stereo not shown) [Compound C21.006] | 66.2 µM |  | 0.11 µM
14 |  |  | no in- hibition | no in- hibition | 3.5 µM |  |  |  | NC(Cc1cc(F)ccc1F)CS(=O)(=O)NCCCCNC(=O)C(O)C(N)Cc1ccccc1 (stereo not shown) [Compound C26.007] |  | 7.3 µM | 
15 |  |  |  |  |  |  |  |  | CC(C)(CNC(=O)CC(N)Cc1cc(F)ccc1F)CNC(=O)C(O)C(N)COCc1ccccc1 (stereo not shown) [Compound C19.001] |  |  | 1.25 µM
16 |  |  |  |  |  |  | 0.01 µM | 0.9 µM | NC(CNC(=O)CCCNC(=O)C(O)C(N)Cc1ccccc1)Cc1cc(F)ccc1F (stereo not shown) [Compound C26.008] |  |  | 
17 | no in- hibition |  | no in- hibition | no in- hibition | 11.4 µM | no in- hibition |  |  | CC(C)(C)OC(=O)NC(CCCCNS(=O)(=O)c1cccc(NC(=O)C(O)C(Cc2ccccc2)NC(=O)OC(C)(C)C)c1)C(=O)N1CCSC1 (stereo not shown) [Compound C21.005] | 15.3 µM |  | 
18 |  |  |  |  |  |  |  |  | CC(C)(CNC(=O)CC(N)Cc1cc(F)ccc1F)CNC(=O)C(O)C(N)COCc1ccccc1 (stereo not shown) [Compound C19.020] |  |  | 1.2 µM

Row | Structure (SMILES) | meas. IC50 (DP8/9) [1] | IC50 [2] | meas. IC50 (APN) [3] | meas. IC50 (DPIV) [4] | IC50 (T lymphocytes (T cells)) | meas. IC50 (cAAP) [2] | IC50 [3] | IC50 [4] | IC50 (NHEK cells) | IC50 (SZ95 cells) | IC50 [1]
19 | CC(C)(CNC(=O)CC(N)Cc1cc(F)ccc1F)CNC(=O)C(O)C(N)Cn1cnc2cncnc21 (stereo not shown) [Compound C18.001] |  | 1 µM |  |  | 29.8 µM |  | 0.91 µM | 0.247 µM |  | ≥ 156 µM | 16 µM
20 | CCOC(=O)C(O[Si](C)(C)C(C)(C)C)C(Cc1ccc(-c2cccnc2)cc1)NC(=O)OCc1ccccc1 (stereo not shown) [Compound C26.006] |  |  | no in- hibition | no in- hibition | 3.8 µM | no in- hibition |  |  | 1.9 µM | 7.9 µM | 
